Earlier results on two substances are cited in patent EP0002485B1, “Process for the preparation of marking compositions containing tin” (HOECHST AKTIENGESELLSCHAFT, priority 1977, dated 1979).

For series [1] the following is noted: labelled with Tc-99m; compared with pyro- and polyphosphates.
The conditions of series [2]: time until optimum of skeletal accumulation.

For “1-Hydroxyäthan-1,1-diphosphonsäure [HEDP]”, the Plasmaclearance result in series [1] is recorded as “bedeutend schnellere”.
As for Methylendiphosphonsäure [MDP], the “Anreicherung im Skelett erreicht das Optimum” value in series [2] is “zwei”.
